Test results taken from article PMC10004634 (PLOS ONE, 2023).
Entries after “also recorded” stand apart in the source; their conditions may differ.

Legend:
RIPK2 = RIPK2 (Homo sapiens, UniProt O43353); experiment: KinAffinity cell-based binding assay using PBMC; set-up: in a cell-based assay using PBMC (Kd); host or cells: PBMC
TMD8 cells = experiment: RT-qPCR of IRF4, BCL6, MYC mRNA; assay type: cell-based, human; conditions: 24 h
Experimental: After culturing, total RNA was isolated from cells using the RNeasy Plus Mini Kit (Qiagen), then cDNA was prepared from total RNA using the SuperScript VILO cDNA Synthesis Kit (Invitrogen) following the kit instructions. For quantification of each mRNA expression level, PCR was performed using TaqMan Fast Universal PCR Master Mix (Thermo Fisher Scientific) under the following conditions with the AriaMx Real Time PCR System (Agilent Technologies): 95°C for 3 min, followed by 40 cycles at 95°C for 5 s and 60°C for 20 s with continuous fluorescence measurement. All PCRs were performed in triplicate, and the mRNA expression of GAPDH was used as an internal control. The results (fold changes of the threshold cycle [Ct] relative to the control group) were obtained using the 2^−ΔΔCt method. The TaqMan probes for IRF4 (Assay ID: Hs00180031_m1), BCL6 (Assay ID: Hs00153368_m1), MYC (Assay ID: Hs00153408_m1), and GAPDH (Assay ID: Hs02786624_g1) were purchased from Thermo Fisher Scientific. Statistical tests were performed with the SAS 9.4 (SAS Institute Japan Ltd., Tokyo, Japan) TS1M4-based EXSUS system version 10.1.3 (CAC Corporation, Tokyo, Japan). The t-test or Dunnett test was used to compare mRNA expression in the DMSO- and compound-treated groups. The statistical tests were two-sided with a 5% significance level.

BTK = BTK (Homo sapiens, UniProt Q06187); experiment: KINOMEscan binding assay; conditions: 300 nM; read-out: inhibition of kinase binding (KINOMEscan)
[1] = test system: TMD8 subcutaneous xenograft; experiment: TMD8 subcutaneous xenograft model, tumor volume; assay type: in vivo, mouse; conditions: SCID mice; 1, 3, 10 mg/kg BID orally, 21 days
Experimental: The present study was conducted in compliance with the Guidance for Animal Experiments, the Ethical Standards for Experiments using Human Tissues, and the Standards for Safety Management of Pathogens established by Ono Pharmaceutical Co., Ltd. Female C.B-17/Icr-scid/scidJcl mice (hereafter referred to as severe combined immunodeficient [SCID] mice) were obtained from CLEA Japan, Inc. (Tokyo, Japan). The age at the beginning of the experiment was 6 weeks. To establish the TMD8 xenograft model, TMD8 cell suspension (0.1 mL, 1 × 10^8 cells/mL) was subcutaneously injected into the right flank of SCID mice under pentobarbital anesthesia. […] Tumor diameters and body weight were measured every 3 or 4 days after group assignment. The tumor growth inhibition rate (%) in the tirabrutinib-treated groups, versus the vehicle group, was calculated based on tumor volume. Statistical tests were performed with the SAS 9.2 (SAS Institute Japan Ltd., Tokyo, Japan) TS2M3-based EXSUS system version 7.7.1 (CAC Corporation, Tokyo, Japan). The Dunnett test was used to compare tumor volume in the tirabrutinib- and vehicle-treated groups, and linear regression analysis was used to study dose response in the tirabrutinib groups. The statistical tests were two-sided with a 5% significance level.

EGFR(L747-T751del,Sins) = EGFR(L747-T751del,Sins) (Homo sapiens, UniProt P00533, DEL747-750/T751S); experiment: biochemical; set-up: KINOMEscan scanMAX competition binding, DNA-tagged kinases, qPCR read-out, percent control at 300 nM; conditions: read-out: Percent control / Tirabrutinib
PIK3CA(C420R) = PIK3CA(C420R) (Homo sapiens, UniProt P42336, C420R); experiment: biochemical; set-up: KINOMEscan scanMAX competition binding, DNA-tagged kinases, qPCR read-out, percent control at 300 nM; conditions: read-out: Percent control / Zanubrutinib
MTOR = MTOR (Homo sapiens, UniProt P42345); experiment: biochemical; set-up: KINOMEscan scanMAX competition binding, DNA-tagged kinases, qPCR read-out, percent control at 300 nM; conditions: read-out: Percent control / Zanubrutinib
EPHA5 = EPHA5 (Homo sapiens, UniProt P54756); experiment: biochemical; set-up: KINOMEscan scanMAX competition binding, DNA-tagged kinases, qPCR read-out, percent control at 300 nM; conditions: read-out: Percent control / Zanubrutinib
LRRK2(G2019S) = LRRK2(G2019S) (Homo sapiens, UniProt Q5S007, G2019S); experiment: biochemical; set-up: KINOMEscan scanMAX competition binding, DNA-tagged kinases, qPCR read-out, percent control at 300 nM; conditions: read-out: Percent control / Zanubrutinib
ERBB2 = ERBB2 (Homo sapiens, UniProt P04626); experiment: Z'-Lyte kinase inhibition assay; assay type: biochemical; set-up: purchased Thermo Fisher Scientific (Invitrogen Z'-Lyte service); conditions: 60 min preincubation
Experimental: In all the assays, each test compound was preincubated with peptide/kinase mixture or kinase/antibody mixture for 60 min at room temperature before adding the ATP solution or AlexaFluor labeled Tracer to initiate the 60-min incubation of the reactants.

PIK3CG = PIK3CG (Homo sapiens, UniProt P48736); experiment: biochemical; set-up: KINOMEscan scanMAX competition binding, DNA-tagged kinases, qPCR read-out, percent control at 300 nM; conditions: read-out: Percent control / Acalabrutinib
JNK3 = biological target: T1, JNK3 (Homo sapiens, UniProt P53779); experiment: biochemical; set-up: KINOMEscan scanMAX competition binding, DNA-tagged kinases, qPCR read-out, percent control at 300 nM; conditions: read-out: Percent control / Acalabrutinib
T1 construct: gene MAPK10

CAMK1 = CAMK1 (Homo sapiens, UniProt Q14012); experiment: biochemical; set-up: KINOMEscan scanMAX competition binding, DNA-tagged kinases, qPCR read-out, percent control at 300 nM; conditions: read-out: Percent control / Acalabrutinib
[2] = biological target: T2, ABL1(F317I)-phosphorylated (Homo sapiens, UniProt P00519, F317I); experiment: biochemical; set-up: KINOMEscan scanMAX competition binding, DNA-tagged kinases, qPCR read-out, percent control at 300 nM; conditions: read-out: Percent control / Acalabrutinib
T2 construct: phosphorylated

YANK3 = biological target: T3, YANK3 (Homo sapiens, UniProt Q86UX6); experiment: biochemical; set-up: KINOMEscan scanMAX competition binding, DNA-tagged kinases, qPCR read-out, percent control at 300 nM; conditions: read-out: Percent control / Acalabrutinib
T3 construct: gene STK32C

[3] = tirabrutinib 1 μM, BMS-345541 10 μM, MK-2206 1 μM, refametinib 0.1 μM

Chain of LRRK2(G2019S) (Q5S007 whole entry G2019S): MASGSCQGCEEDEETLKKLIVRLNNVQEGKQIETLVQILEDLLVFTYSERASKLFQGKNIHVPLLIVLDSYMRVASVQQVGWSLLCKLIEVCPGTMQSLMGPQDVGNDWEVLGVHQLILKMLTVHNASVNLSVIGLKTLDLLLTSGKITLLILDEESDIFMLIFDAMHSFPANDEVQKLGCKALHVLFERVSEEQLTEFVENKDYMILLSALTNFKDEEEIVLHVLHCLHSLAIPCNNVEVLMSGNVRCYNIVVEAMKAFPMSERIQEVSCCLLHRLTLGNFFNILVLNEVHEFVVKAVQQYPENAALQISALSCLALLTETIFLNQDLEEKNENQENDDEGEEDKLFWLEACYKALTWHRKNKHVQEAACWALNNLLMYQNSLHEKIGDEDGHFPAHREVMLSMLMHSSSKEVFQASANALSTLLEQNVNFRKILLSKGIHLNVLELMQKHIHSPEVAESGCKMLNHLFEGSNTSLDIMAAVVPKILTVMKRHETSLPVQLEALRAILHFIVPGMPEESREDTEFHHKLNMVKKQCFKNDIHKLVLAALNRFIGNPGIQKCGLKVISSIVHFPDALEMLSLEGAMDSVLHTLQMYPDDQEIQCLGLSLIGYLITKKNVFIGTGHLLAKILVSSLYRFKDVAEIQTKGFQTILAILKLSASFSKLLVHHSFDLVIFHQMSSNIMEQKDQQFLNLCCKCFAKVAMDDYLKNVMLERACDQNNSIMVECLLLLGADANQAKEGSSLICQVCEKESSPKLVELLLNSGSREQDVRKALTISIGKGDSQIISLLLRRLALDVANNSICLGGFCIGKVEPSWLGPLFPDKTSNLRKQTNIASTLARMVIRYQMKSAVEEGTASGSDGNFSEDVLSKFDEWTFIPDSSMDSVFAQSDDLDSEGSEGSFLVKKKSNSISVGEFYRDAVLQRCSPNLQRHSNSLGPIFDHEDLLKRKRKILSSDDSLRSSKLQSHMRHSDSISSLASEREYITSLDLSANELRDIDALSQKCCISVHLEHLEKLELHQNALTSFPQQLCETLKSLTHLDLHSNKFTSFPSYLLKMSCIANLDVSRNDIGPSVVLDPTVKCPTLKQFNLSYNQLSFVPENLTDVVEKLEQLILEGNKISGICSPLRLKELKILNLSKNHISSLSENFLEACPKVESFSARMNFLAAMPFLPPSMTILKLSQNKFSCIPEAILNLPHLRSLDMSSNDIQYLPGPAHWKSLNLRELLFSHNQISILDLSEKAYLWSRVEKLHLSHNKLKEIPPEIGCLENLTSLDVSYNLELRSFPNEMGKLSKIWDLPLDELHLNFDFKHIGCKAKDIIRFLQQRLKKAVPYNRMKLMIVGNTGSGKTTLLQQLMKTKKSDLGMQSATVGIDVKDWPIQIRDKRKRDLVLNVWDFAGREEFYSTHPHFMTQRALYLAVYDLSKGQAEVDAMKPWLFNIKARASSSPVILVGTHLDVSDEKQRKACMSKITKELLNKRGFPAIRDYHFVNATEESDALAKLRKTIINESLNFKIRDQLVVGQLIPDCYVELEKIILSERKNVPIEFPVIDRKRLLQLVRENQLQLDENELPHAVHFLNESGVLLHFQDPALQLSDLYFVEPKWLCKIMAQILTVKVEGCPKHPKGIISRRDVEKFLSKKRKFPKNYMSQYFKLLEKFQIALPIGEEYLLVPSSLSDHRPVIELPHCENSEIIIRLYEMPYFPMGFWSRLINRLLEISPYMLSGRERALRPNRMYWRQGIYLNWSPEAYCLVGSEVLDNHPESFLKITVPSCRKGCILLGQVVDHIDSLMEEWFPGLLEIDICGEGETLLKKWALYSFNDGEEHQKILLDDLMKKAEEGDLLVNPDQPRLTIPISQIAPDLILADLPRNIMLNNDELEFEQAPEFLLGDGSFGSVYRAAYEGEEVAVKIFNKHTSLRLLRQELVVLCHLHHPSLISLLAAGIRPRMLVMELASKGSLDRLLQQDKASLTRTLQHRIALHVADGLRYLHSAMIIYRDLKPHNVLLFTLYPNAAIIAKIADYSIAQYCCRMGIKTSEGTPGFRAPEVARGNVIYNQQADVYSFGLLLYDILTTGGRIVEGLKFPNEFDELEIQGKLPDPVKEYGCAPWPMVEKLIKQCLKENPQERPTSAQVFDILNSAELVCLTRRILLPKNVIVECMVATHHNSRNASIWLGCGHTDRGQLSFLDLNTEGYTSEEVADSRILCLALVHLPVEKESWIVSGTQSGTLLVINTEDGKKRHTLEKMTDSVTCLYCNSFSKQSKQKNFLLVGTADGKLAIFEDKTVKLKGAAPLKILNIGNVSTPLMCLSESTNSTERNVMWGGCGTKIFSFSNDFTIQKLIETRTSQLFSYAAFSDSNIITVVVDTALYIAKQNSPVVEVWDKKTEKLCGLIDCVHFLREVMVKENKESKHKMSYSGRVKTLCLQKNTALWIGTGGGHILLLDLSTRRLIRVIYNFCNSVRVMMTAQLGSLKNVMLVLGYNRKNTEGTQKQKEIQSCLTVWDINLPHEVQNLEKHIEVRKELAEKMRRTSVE
Chain of ERBB2 (P04626 23-1255): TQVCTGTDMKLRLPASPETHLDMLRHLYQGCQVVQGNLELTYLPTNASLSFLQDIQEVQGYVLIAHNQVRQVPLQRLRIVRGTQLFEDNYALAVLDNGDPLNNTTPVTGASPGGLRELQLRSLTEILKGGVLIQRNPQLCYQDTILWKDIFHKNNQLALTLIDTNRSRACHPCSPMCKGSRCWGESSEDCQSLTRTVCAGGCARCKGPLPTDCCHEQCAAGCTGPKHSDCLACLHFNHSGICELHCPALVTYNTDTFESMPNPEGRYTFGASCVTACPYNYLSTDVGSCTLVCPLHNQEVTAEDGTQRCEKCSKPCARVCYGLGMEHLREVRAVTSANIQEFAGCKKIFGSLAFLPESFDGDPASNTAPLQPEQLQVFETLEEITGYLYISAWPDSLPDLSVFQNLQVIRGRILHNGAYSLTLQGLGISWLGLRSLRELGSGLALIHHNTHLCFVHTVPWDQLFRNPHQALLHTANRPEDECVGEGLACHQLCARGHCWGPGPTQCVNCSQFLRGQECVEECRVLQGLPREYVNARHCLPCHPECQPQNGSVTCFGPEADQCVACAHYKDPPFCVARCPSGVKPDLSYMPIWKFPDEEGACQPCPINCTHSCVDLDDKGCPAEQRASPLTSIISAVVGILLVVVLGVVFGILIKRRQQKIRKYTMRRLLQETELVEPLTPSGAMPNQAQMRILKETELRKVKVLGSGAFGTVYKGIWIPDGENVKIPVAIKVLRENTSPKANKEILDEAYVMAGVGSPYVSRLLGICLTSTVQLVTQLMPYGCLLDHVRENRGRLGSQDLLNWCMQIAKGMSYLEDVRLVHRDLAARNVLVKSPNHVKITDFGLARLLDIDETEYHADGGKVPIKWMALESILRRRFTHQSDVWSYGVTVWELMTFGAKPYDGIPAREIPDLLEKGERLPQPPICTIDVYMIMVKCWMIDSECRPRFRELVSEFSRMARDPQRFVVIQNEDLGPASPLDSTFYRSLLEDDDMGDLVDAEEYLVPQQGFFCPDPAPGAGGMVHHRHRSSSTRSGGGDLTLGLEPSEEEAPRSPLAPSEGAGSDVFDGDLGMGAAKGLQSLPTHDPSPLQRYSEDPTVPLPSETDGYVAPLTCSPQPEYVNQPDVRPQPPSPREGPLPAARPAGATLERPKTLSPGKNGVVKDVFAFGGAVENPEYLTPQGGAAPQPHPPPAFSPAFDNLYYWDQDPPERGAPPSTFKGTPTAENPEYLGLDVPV
Chain of CAMK1 (Q14012 whole entry, looked up): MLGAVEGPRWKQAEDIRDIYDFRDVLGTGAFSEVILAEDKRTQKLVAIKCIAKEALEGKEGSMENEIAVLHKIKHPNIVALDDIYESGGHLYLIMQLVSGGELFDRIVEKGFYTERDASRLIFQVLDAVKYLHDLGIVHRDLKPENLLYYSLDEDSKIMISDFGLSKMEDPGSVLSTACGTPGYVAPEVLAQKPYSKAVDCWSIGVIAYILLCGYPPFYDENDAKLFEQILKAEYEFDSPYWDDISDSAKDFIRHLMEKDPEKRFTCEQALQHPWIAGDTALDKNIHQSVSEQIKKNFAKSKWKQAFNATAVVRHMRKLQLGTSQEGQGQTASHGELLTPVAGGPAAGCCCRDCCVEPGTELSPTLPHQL
Chain of BTK (Q06187 whole entry): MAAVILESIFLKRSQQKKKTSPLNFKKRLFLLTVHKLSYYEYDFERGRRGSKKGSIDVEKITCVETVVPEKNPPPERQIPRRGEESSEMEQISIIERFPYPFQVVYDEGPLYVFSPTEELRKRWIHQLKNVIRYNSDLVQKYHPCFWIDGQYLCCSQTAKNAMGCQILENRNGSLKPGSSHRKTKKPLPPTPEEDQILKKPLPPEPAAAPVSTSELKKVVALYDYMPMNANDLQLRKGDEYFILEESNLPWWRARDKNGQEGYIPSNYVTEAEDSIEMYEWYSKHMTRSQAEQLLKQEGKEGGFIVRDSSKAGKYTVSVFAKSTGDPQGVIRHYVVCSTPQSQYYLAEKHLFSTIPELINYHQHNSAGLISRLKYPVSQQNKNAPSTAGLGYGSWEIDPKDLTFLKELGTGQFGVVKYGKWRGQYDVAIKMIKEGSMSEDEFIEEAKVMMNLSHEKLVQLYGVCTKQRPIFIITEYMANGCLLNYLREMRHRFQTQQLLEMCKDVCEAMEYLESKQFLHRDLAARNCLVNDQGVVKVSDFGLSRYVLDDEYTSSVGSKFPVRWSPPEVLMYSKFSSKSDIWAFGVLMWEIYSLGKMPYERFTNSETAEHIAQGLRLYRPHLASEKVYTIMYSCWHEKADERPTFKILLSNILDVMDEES

Question: What does the source list for `CC#CC(=O)N1CC[C@@H](n2c(=O)n(-c3ccc(Oc4ccccc4)cc3)c3c(N)ncnc32)C1` [Tirabrutinib]?
Answer: Kd (RIPK2): > 3 µM; BCL6 mRNA expression (TMD8 cells; 1 μM): upregulated; IRF4 mRNA expression (TMD8 cells; [3]): downregulated; also recorded: strongly inhibited; MYC mRNA expression (TMD8 cells; [3]): partially downregulated; inhibition at 0.3 µM (BTK): 97%; anti-tumor effect (tumor volume) [1]: dose-dependent anti-tumor effect; remaining binding at 0.3 µM (EGFR(L747-T751del,Sins)): 80%

Question: For `C=CC(=O)N1CCC([C@@H]2CCNc3c(C(N)=O)c(-c4ccc(Oc5ccccc5)cc4)nn32)CC1` [Zanubrutinib], which remaining binding at 0.3 µM (PIK3CA(C420R)) is on record?
Answer: 67%

Question: And the remaining binding at 0.3 µM (MTOR)?
Answer: 88%

Question: What about the remaining binding at 0.3 µM (EPHA5) of the same compound?
Answer: 97%

Question: What about the remaining binding at 0.3 µM (LRRK2(G2019S)) of the same compound?
Answer: 47%

Question: And the IC50 (ERBB2)?
Answer: 0.0348 µM

Question: For `CC#CC(=O)N1CCC[C@H]1c1nc(-c2ccc(C(=O)Nc3ccccn3)cc2)c2c(N)nccn12` [Acalabrutinib], which remaining binding at 0.3 µM (PIK3CG) is on record?
Answer: 99%

Question: What about the remaining binding at 0.3 µM (JNK3) of the same compound?
Answer: 94%

Question: And the remaining binding at 0.3 µM (CAMK1)?
Answer: 58%

Question: What about the remaining binding at 0.3 µM [2] of the same compound?
Answer: 94%

Question: What about the remaining binding at 0.3 µM (YANK3) of the same compound?
Answer: 84%
